# Measured values as given in patent US20250304623A1, “PEPTIDES FOR INTRACELLULAR DELIVERY” (UNIVERSIDADE DE SANTIAGO DE COMPOSTELA, priority 2022, published 2025).
# *: point of attachment. NHNH2 = NN*
# What was measured:
# Assay type in all cases: cell-based
# HepG2 cells = test: EGFP mRNA delivery, robotic library screening, HepG2; conditions: HepG2 cells
# Protocol: Cells were seeded in a 96 well plate the day before the experiment at a concentration of 50,000 cell/mL (100 μL/w) in DMEM+10% FBS+1% Gln-Abt. For robotic library screening, the delivery of EGFP-mRNA (from TriLink, fully substituted with 5-methoxyuridine, capped and polyadenylated; TriLink, CleanCap® EGFP mRNA (5moU), ref. L-7201) in six different cell lines was performed. Amphiphilic molecule stock solutions were prepared in DMSO as described above and diluted in DMEM to afford a range of concentrations. The solutions of EGFP-mRNA/amphiphilic molecule complexes were freshly prepared prior to the transfection experiments. 35 μL of the corresponding amphiphile were added to 10 μL of a solution of EGFP-mRNA at 10 ng/μL in DMEM. The mixture was shaken for 30 min at room temperature before the addition to the cells. The cell medium was aspirated, and cells were washed with PBS twice. […] After the incubation, the medium was replaced by 100 μL of fresh DMEM supplemented with 10% FBS. The total EGFP fluorescence was quantified after 72 h in a well plate reader. Amphiphile transfection efficiency was compared and normalized to Lipofectamine® MessengerMax efficiency (value of 1 in Tables 1-5 and 7; double underlined numbers). All experiments were done in triplicate.
# (§1) Tables 1-7: RLuc (pDNA) or EGFP (mRNA) expression levels were normalized to Lipofectamine reagents (value=1) and expressed as fold-times signal increase. In the case of siRNA, the siRNA treated cells fluorescence was compared with siMOCK control fluorescence, while Cas9-RNP mediated knockout was measured against the fluorescence of untreated cells. In both siRNA and Cas9-RNP, values are expressed as % fluorescence reduction. Amphiphile concentration was 5 μM in all cases. All experiments were performed in triplicate.
# Tables 14-19 show the mean (triplicates) fluorescence intensity measured after the transfection of EGFP mRNA by different amphiphiles at different concentrations in a variety of cell lines. Background fluorescence values, accounted by untreated control cells, were subtracted for processing.
# HCT116 cells = test: RLuc pDNA delivery, robotic library screening, HCT116
# [1] = tested on: HCT116 cells expressing EGFP; test: EGFP-targeting siRNA delivery (GFP silencing vs siMOCK), HCT116
# Protocol: To generate an EGFP expressing HeLa cell line, HeLa cells were transfected with EGFP pDNA (pEGFP-C1, Clontech) and stable transfectants were selected with 400 μg/mL of G-418 (Millipore). Green clones were selected by epifluorescence microscopy and tested for EGFP expression stability through several passages. […] All other EGFP-expressing cell lines were obtained in a similar way from parent non-EGFP-expressing cell lines.
# Cells expressing EGFP were seeded in a 96 well plate the day before the experiment at a concentration of 50,000 cell/mL (100 μL/w) in DMEM+10% FBS+1% Gln-Abt. For robotic library screening, the delivery of an EGFP-targeting siRNA (EGFP: enhanced green fluorescent protein, Ambion® Silencer® GFP Positive Control siRNA (siGFP) (AM4626)) in six different cell lines expressing EGFP was performed. Amphiphilic molecules stock solutions in DMSO were diluted with DMEM and freshly mixed with siRNA stock solutions in DMEM prior to transfection experiments, to afford several complexes at different amphiphile concentration (2-10 μM) while maintaining a constant final siRNA concentration of 30 nM. The mixture was shaken for 30 min at room temperature (rt) before the addition to the cells. The cell medium was aspirated, and cells were washed twice with PBS. Finally, 50 μL of the solution of siRNA/amphiphile complexes were added to the cells and incubated for 4 h. After transfection, the medium was replaced by 100 μL of fresh DMEM supplemented with 10% FBS. The fluorescence knockdown was quantified after 72 h in a plate reader, by comparison with cells transfected with a non-targeting siRNA control (siMOCK, Silencer™ Negative Control No. 1 siRNA (siMOCK) (AM4611)). EGFP knockdown was compared with Lipofectamine® RNAiMAX silencing efficiency (30-60% depending on cell line, defined with a numeric value in the below tables). All experiments were done in triplicate.
# as §1
# Tables 20-25 show the mean (triplicates) percentage of GFP-silencing, accounted by fluorescence intensity decrease relative to a non-targeting siRNA (siMOCK) control, measured after the transfection of siRNA by different amphiphiles at different concentrations in a variety of cell lines. Background values, accounted by untreated control cells, were subtracted for processing.
Substance,"mean fluorescence intensity after transfection of EGFP mRNA (HepG2 cells; Dodecanal, 5 μM)","mean fluorescence intensity after transfection of EGFP mRNA (HepG2 cells; Dodecanal, 10 μM)","mean fluorescence intensity after transfection of EGFP mRNA (HepG2 cells; Dodecanal, 15 μM)","mean fluorescence intensity after transfection of EGFP mRNA (HepG2 cells; Myristoleyl, 5 μM)","mean fluorescence intensity after transfection of EGFP mRNA (HepG2 cells; Oleyl, 5 μM)","mean fluorescence intensity after transfection of EGFP mRNA (HepG2 cells; Palmitoleyl, 10 μM)","mean fluorescence intensity after transfection of EGFP mRNA (HepG2 cells; Palmitoleyl, 15 μM)","mean luminescent intensity (RLuc pDNA) (HCT116 cells; Dodecanal, 10 μM) [RLU]","mean luminescent intensity (RLuc pDNA) (HCT116 cells; Dodecanal, 15 μM) [RLU]","mean luminescent intensity (RLuc pDNA) (HCT116 cells; Myristoleyl, 5 μM) [RLU]","mean luminescent intensity (RLuc pDNA) (HCT116 cells; Myristoleyl, 10 μM) [RLU]","mean luminescent intensity (RLuc pDNA) (HCT116 cells; Myristoleyl, 15 μM) [RLU]","mean luminescent intensity (RLuc pDNA) (HCT116 cells; Petroselinyl, 5 μM) [RLU]","mean luminescent intensity (RLuc pDNA) (HCT116 cells; Petroselinyl, 10 μM) [RLU]","mean luminescent intensity (RLuc pDNA) (HCT116 cells; Petroselinyl, 15 μM) [RLU]","percentage of GFP-silencing relative to siMOCK ([1]; Dodecanal, 5 μM) [%]","percentage of GFP-silencing relative to siMOCK ([1]; Dodecanal, 10 μM) [%]","percentage of GFP-silencing relative to siMOCK ([1]; Myristoleyl, 15 μM) [%]","percentage of GFP-silencing relative to siMOCK ([1]; Palmitoleyl, 10 μM) [%]","percentage of GFP-silencing relative to siMOCK ([1]; Petroselinyl, 15 μM) [%]",other results
"Ac-RK*LRK*K*L-NH2 (Ac-RK(NHNH2)LRK(NHNH2)K(NHNH2)L-NH2; not fully specified; printed as Ac-RK*LRK*K*L-NH2; also: K*2,K*5,K*6: native or modified lysine (ε-amide to a linker)) [Peptide 7.3]",1786,1477,952,1046,893,3553,766,1049,1534,1060,7147,212,62932,58529,16332,8,14,27,23,11,"mean fluorescence intensity after transfection of EGFP mRNA (HepG2 cells; Palmitoleyl, 5 μM): 3286; mean fluorescence intensity after transfection of EGFP mRNA (HepG2 cells; Petroselinyl, 5 μM): 4095; mean fluorescence intensity after transfection of EGFP mRNA (HepG2 cells; Petroselinyl, 10 μM): 188; mean fluorescence intensity after transfection of EGFP mRNA (HepG2 cells; Petroselinyl, 15 μM): 821; percentage of GFP-silencing relative to siMOCK ([1]; Petroselinyl, 5 μM): 15%"
"Ac-RK*LRRK*L-NH2 (Ac-RK(NHNH2)LRRK(NHNH2)L-NH2; not fully specified; printed as Ac-RK*LRRK*L-NH2; also: K*2,K*6: native or modified lysine (ε-amide to a linker)) [Peptide 7.2]",75,−468,268,678,–,–,–,729,684,−526,−505,−526,–,–,–,−20,−5,−22,–,–,"mean fluorescence intensity after transfection of EGFP mRNA (HepG2 cells; Myristoleyl, 10 μM): 752; mean fluorescence intensity after transfection of EGFP mRNA (HepG2 cells; Myristoleyl, 15 μM): −60; mean luminescent intensity (RLuc pDNA) (HCT116 cells; Dodecanal, 5 μM): 911 RLU; percentage of GFP-silencing relative to siMOCK ([1]; Myristoleyl, 10 μM): 19%"
"Ac-RK*LRRK*LRK*-NH2 (Ac-RK(NHNH2)LRRK(NHNH2)LRK(NHNH2)-NH2; not fully specified; printed as Ac-RK*LRRK*LRK*-NH2; also: K*2,K*6,K*9: native or modified lysine (ε-amide to a linker)) [Peptide 9.3]",–,–,–,–,382,1226,629,1466,1854,16615,58572,19746,30301,113431,76316,33,33,13,25,33,"mean fluorescence intensity after transfection of EGFP mRNA (HepG2 cells; Myristoleyl, 15 μM): 867; mean fluorescence intensity after transfection of EGFP mRNA (HepG2 cells; Oleyl, 10 μM): 802; mean fluorescence intensity after transfection of EGFP mRNA (HepG2 cells; Oleyl, 15 μM): 231; mean luminescent intensity (RLuc pDNA) (HCT116 cells; Oleyl, 15 μM): 1940 RLU; mean luminescent intensity (RLuc pDNA) (HCT116 cells; Palmitoleyl, 15 μM): 141026 RLU; percentage of GFP-silencing relative to siMOCK ([1]; Dodecanal, 15 μM): 48%; percentage of GFP-silencing relative to siMOCK ([1]; Myristoleyl, 10 μM): 40%; percentage of GFP-silencing relative to siMOCK ([1]; Oleyl, 5 μM): 35%; percentage of GFP-silencing relative to siMOCK ([1]; Oleyl, 15 μM): 54%; percentage of GFP-silencing relative to siMOCK ([1]; Palmitoleyl, 15 μM): 45%"
